Results taken from the supplement of paper PMC10307832.

Assays:
Experiment in all cases: relative viability (nuclei count vs DMSO), 5 days (fraction); higher = more cells survive
GSK-J4 + Luminespib = compound: CCOC(=O)CCNc1cc(N2CCc3ccccc3CC2)nc(-c2ccccn2)n1 [GSK-J4] + CCNC(=O)c1noc(-c2cc(C(C)C)c(O)cc2O)c1-c1ccc(CN2CCOCC2)cc1 [Luminespib] (partner 0.01 µM)
In short: (§1)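 Relative viability was taken as the ratio of nuclei in treated wells to nuclei in vehicle wells. Lung cancer cell lines in 1536-well plates received compounds by pin tool one day after seeding, either one drug alone or a fixed anchor-drug dose plus five library-drug doses (not always all listed) in √10 steps. Nuclei were counted on 4× images after 5 days of treatment, and values are medians of duplicate plates.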

AZ3146 + Trametinib = compound: CN1CCC(CC1)OC2=CC(=C(C=C2)NC3=NC=C4C(=N3)N(C(=O)N4C)C5CCCC5)OC [AZ3146] + CC(=O)Nc1cccc(-n2c(=O)n(C3CC3)c(=O)c3c(Nc4ccc(I)cc4F)n(C)c(=O)c(C)c32)c1 [Trametinib] (partner 0.02 µM)
In short: as §1

AZ3146 + Linsitinib = compound: CN1CCC(CC1)OC2=CC(=C(C=C2)NC3=NC=C4C(=N3)N(C(=O)N4C)C5CCCC5)OC [AZ3146] + C[C@]1(O)C[C@@H](c2nc(-c3ccc4ccc(-c5ccccc5)nc4c3)c3c(N)nccn32)C1 [Linsitinib] (partner 1 µM)
In short: as §1

AZ3146 + Decitabine = compound: CN1CCC(CC1)OC2=CC(=C(C=C2)NC3=NC=C4C(=N3)N(C(=O)N4C)C5CCCC5)OC [AZ3146] + Nc1ncn([C@H]2C[C@H](O)[C@@H](CO)O2)c(=O)n1 [Decitabine] (partner 2 µM)
In short: as §1

Row | Cell Line | relative viability (GSK-J4 + Luminespib; first compound 0.5 µM) | relative viability (GSK-J4 + Luminespib; first compound 1.581 µM) | relative viability (GSK-J4 + Luminespib; first compound 5 µM) | relative viability (GSK-J4 + Luminespib; first compound 15.81 µM) | relative viability (GSK-J4 + Luminespib; first compound 50 µM) | relative viability (AZ3146 + Trametinib; first compound 0.08 µM) | relative viability (AZ3146 + Trametinib; first compound 0.253 µM) | relative viability (AZ3146 + Trametinib; first compound 0.8 µM) | relative viability (AZ3146 + Trametinib; first compound 2.53 µM) | relative viability (AZ3146 + Trametinib; first compound 8 µM) | relative viability (AZ3146 + Linsitinib; first compound 0.08 µM) | relative viability (AZ3146 + Linsitinib; first compound 0.253 µM) | relative viability (AZ3146 + Linsitinib; first compound 0.8 µM) | relative viability (AZ3146 + Linsitinib; first compound 2.53 µM) | relative viability (AZ3146 + Linsitinib; first compound 8 µM) | relative viability (AZ3146 + Decitabine; first compound 0.08 µM) | relative viability (AZ3146 + Decitabine; first compound 0.253 µM) | relative viability (AZ3146 + Decitabine; first compound 0.8 µM) | relative viability (AZ3146 + Decitabine; first compound 2.53 µM) | relative viability (AZ3146 + Decitabine; first compound 8 µM)
1 | NCI-H2085 | 0.477 | 0.394 | 0.419 | 0.41 | 0.309 | 0.495 | 0.57 | 0.506 | 1.03 | 0.403 | 0.898 | 0.848 | 0.956 | 0.912 | 0.727 | 0.525 | 0.53 | 0.581 | 0.598 | 0.611
2 | NCI-H2087 | 0.172 | – | 0.166 | 0.162 | 0.174 | 0.201 | 0.196 | 0.214 | 0.214 | 0.182 | 0.816 | 0.952 | 1.11 | 1.02 | 1 | 0.227 | 0.328 | 0.289 | 0.315 | 0.202
3 | NCI-H2126 | 0.796 | 0.867 | 0.876 | 0.82 | 0.651 | 0.58 | 0.553 | 0.503 | 0.534 | 0.547 | 0.687 | 0.667 | 0.761 | 0.739 | 0.696 | 0.626 | 0.604 | 0.569 | 0.597 | 0.572
4 | NCI-H2347 | 0.529 | 0.405 | 0.341 | – | 0.435 | 0.295 | 0.308 | 0.326 | 0.293 | 0.326 | 1.01 | 0.893 | 0.891 | 0.887 | 0.988 | 0.588 | 0.67 | 0.593 | 0.601 | 0.631
5 | NCI-H2405 | 0.774 | 0.674 | – | 0.511 | 0.653 | 0.731 | 0.537 | 0.666 | 0.663 | 0.676 | 0.973 | – | 1.04 | 0.937 | 0.747 | 0.733 | 0.738 | 0.789 | 0.788 | 0.697
6 | NCI-H3122 | 0.0789 | 0.067 | 0.119 | 0.0946 | 0.121 | 0.245 | 0.228 | 0.224 | 0.204 | 0.251 | 1.02 | 1.06 | 1.03 | 1.04 | 1.06 | 0.475 | 0.44 | 0.42 | 0.426 | 0.514
7 | PC-3 [JPC-3] | 0.698 | 0.552 | 0.735 | 0.584 | 0.439 | 0.709 | – | 0.596 | 0.728 | 0.626 | 0.972 | 0.96 | 1.01 | 0.996 | 0.932 | 0.768 | – | 0.806 | 0.81 | 0.85
8 | PC-14 | 0.216 | 0.159 | 0.151 | 0.126 | 0.125 | 0.728 | 0.821 | 0.818 | 0.796 | 0.694 | 1.05 | 0.995 | 0.98 | 1.03 | 0.941 | 0.208 | 0.2 | 0.249 | 0.15 | 0.0833
9 | RERF-LC-KJ | 1.23 | 1.17 | 1.31 | 1.12 | 0.584 | 0.848 | 0.982 | 0.796 | 0.911 | 0.769 | 0.904 | 0.902 | 0.972 | 0.876 | 0.896 | 0.69 | 0.704 | 0.731 | 0.73 | 0.381
10 | SK-LU-1 | 0.214 | 0.195 | 0.166 | 0.201 | 0.212 | 0.475 | 0.409 | 0.436 | 0.549 | 0.432 | 1.02 | 1.4 | 1.13 | 1.27 | 0.547 | 0.558 | 0.684 | 0.552 | 0.647 | 0.692
11 | SK-MES-1 | 0.695 | 0.731 | 0.718 | 0.686 | 0.37 | 0.549 | 0.579 | 0.585 | 0.555 | 0.544 | 1.06 | 1.06 | 1.01 | 1.09 | 1.12 | 0.364 | 0.397 | 0.359 | 0.477 | 0.344
12 | SW 1573 | 0.199 | 0.0964 | 0.268 | 0.213 | 0.148 | 0.541 | 0.63 | 0.663 | 0.591 | 0.45 | 0.912 | 0.933 | 0.823 | 0.859 | 0.708 | 0.509 | 0.605 | 0.542 | 0.397 | 0.162
